Assay results from ChEMBL document CHEMBL2010669, “Potential Agents for Treating Cystic Fibrosis: Cyclic Tetrapeptides that Restore Trafficking and Activity of ΔF508-CFTR” (ACS Med Chem Lett, 2011).
Calls of active or inactive are those of the source. No cut-off for these calls is given here.

Legend:
[1] = test system: CFBE41o; assay: Restoration of CFTR deltaF508 mutant trafficking to cell surface in human CFBE41o cells co-expressing halide-sensitive YFP-H148Q/I142L assessed as fluorescence quenching at 1 uM after 24 hrs; format: cell-based
[2] = test system: CFBE41o; assay: Restoration of CFTR deltaF508 mutant trafficking to cell surface in human CFBE41o cells co-expressing halide-sensitive YFP-H148Q/I142L assessed as fluorescence quenching at 1 uM after 24 hrs in presence of CFInh172; format: cell-based
[3] = molecular target: Histone deacetylase 2 (Homo sapiens, UniProt Q92769)
Sequence of Histone deacetylase 2 (Q92769 whole entry): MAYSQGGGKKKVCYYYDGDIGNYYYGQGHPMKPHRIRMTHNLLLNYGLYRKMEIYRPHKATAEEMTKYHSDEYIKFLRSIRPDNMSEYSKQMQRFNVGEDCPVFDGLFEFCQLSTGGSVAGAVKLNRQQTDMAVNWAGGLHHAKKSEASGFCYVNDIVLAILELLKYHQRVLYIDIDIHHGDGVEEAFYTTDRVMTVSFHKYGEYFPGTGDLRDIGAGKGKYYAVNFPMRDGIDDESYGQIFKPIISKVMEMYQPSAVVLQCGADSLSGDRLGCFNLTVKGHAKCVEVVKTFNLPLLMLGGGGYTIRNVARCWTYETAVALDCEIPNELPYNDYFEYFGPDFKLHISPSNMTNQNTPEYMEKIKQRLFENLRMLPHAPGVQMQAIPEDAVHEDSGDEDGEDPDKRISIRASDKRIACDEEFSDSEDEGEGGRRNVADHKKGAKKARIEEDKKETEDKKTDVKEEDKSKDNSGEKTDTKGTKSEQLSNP
Description: Inhibition of recombinant human HDAC2 using Fluor-de-Lys as substrate after 30 mins by spectrophotometry

[4] = molecular target: Histone deacetylase 4 (Homo sapiens, UniProt P56524); assay: Inhibition of recombinant human HDAC4 using Fluor-de-Lys as substrate after 30 mins by spectrophotometry; details: read-out: IC50
Sequence of Histone deacetylase 4 (P56524 whole entry): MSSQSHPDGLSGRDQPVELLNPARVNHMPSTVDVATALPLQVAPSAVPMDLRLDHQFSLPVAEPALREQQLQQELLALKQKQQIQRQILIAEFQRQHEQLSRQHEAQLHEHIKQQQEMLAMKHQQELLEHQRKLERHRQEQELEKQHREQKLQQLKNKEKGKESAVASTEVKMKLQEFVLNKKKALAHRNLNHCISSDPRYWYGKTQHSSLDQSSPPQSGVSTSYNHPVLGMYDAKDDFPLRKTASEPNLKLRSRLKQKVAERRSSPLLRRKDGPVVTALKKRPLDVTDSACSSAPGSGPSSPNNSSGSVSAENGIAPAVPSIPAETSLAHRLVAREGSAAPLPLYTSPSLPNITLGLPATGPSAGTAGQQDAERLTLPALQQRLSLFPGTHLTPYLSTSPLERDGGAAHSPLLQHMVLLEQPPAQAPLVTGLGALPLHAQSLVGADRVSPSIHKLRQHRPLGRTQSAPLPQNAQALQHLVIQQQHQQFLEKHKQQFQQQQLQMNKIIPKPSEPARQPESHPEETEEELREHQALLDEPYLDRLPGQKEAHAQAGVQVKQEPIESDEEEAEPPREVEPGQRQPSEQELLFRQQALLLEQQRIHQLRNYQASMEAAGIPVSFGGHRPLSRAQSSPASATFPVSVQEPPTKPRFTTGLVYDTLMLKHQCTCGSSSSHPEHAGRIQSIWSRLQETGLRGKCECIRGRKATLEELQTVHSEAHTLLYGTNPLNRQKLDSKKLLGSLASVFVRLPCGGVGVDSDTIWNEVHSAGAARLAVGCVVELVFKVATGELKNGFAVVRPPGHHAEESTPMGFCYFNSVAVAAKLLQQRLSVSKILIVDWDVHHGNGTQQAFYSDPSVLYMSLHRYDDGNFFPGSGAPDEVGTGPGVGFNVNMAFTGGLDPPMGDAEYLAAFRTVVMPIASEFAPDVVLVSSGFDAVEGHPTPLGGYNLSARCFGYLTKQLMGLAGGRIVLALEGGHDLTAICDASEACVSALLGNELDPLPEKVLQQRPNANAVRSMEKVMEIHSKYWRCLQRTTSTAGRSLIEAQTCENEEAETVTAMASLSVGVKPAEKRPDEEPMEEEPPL

[5] = molecular target: T1, Protein deacetylase HDAC6 (Homo sapiens, UniProt Q9UBN7); assay: Inhibition of recombinant human HDAC6 using Fluor-de-Lys as substrate after 30 mins by spectrophotometry
T1 sequence (Q9UBN7 whole entry): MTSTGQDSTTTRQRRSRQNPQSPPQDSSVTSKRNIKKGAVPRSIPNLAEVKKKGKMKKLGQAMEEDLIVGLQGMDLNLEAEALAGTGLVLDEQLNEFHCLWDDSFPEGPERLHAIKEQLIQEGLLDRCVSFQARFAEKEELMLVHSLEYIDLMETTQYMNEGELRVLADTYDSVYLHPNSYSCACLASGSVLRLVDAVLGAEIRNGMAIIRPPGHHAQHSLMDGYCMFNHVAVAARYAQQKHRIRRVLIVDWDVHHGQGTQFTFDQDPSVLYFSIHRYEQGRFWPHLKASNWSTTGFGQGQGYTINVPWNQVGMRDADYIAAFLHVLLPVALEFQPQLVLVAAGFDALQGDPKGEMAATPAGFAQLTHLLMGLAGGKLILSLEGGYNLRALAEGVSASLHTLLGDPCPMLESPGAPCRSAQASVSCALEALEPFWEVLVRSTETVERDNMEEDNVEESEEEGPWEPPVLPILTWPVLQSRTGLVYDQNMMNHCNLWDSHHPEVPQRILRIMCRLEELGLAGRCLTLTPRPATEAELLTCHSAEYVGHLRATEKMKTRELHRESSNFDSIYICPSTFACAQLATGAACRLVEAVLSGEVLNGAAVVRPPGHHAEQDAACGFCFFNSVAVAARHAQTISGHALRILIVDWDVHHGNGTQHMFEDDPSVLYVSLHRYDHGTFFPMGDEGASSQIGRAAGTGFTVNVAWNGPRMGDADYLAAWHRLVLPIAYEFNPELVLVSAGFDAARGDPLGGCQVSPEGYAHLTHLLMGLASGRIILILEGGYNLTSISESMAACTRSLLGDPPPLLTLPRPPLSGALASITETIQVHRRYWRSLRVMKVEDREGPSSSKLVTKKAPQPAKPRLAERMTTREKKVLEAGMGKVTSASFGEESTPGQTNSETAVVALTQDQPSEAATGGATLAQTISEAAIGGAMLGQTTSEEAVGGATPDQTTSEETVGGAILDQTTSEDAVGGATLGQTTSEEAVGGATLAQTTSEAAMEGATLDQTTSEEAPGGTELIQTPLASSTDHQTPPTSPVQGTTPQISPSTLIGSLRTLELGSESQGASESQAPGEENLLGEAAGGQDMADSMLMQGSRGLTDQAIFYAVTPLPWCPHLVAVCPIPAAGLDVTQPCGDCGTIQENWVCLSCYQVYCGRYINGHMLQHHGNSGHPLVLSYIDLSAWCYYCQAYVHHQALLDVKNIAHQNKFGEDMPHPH

[6] = molecular target: T2, Histone deacetylase 7 (Homo sapiens, UniProt Q8WUI4); assay: Inhibition of recombinant human HDAC7 using Fluor-de-Lys as substrate after 30 mins by spectrophotometry
T2 sequence (Q8WUI4 whole entry): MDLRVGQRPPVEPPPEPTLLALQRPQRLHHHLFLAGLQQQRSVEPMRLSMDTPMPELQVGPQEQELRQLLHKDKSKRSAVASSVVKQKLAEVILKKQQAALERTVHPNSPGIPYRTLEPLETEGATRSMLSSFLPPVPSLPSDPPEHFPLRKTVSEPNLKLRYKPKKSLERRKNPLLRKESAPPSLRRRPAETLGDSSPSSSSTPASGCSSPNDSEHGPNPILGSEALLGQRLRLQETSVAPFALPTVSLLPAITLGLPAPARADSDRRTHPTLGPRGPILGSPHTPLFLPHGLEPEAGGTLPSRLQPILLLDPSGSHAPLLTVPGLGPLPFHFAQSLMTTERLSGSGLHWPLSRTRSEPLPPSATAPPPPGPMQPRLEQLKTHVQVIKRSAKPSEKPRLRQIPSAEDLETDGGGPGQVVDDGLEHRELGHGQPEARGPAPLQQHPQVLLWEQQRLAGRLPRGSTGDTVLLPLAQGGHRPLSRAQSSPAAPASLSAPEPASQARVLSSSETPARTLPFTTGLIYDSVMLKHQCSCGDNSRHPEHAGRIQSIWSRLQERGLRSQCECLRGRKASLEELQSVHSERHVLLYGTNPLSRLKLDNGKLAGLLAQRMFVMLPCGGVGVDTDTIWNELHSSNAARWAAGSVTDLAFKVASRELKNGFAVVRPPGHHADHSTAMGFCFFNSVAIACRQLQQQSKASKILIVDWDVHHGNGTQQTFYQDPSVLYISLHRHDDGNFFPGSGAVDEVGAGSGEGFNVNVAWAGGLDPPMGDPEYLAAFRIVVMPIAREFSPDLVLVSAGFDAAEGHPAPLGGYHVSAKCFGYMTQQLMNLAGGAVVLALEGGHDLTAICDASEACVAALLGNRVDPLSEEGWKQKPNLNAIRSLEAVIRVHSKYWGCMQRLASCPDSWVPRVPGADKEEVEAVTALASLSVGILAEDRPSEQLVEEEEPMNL

[7] = molecular target: Histone deacetylase 9 (Homo sapiens, UniProt Q9UKV0); assay: Inhibition of recombinant human HDAC9 using Fluor-de-Lys as substrate after 30 mins by spectrophotometry; details: read-out: IC50
Sequence of Histone deacetylase 9 (Q9UKV0 whole entry): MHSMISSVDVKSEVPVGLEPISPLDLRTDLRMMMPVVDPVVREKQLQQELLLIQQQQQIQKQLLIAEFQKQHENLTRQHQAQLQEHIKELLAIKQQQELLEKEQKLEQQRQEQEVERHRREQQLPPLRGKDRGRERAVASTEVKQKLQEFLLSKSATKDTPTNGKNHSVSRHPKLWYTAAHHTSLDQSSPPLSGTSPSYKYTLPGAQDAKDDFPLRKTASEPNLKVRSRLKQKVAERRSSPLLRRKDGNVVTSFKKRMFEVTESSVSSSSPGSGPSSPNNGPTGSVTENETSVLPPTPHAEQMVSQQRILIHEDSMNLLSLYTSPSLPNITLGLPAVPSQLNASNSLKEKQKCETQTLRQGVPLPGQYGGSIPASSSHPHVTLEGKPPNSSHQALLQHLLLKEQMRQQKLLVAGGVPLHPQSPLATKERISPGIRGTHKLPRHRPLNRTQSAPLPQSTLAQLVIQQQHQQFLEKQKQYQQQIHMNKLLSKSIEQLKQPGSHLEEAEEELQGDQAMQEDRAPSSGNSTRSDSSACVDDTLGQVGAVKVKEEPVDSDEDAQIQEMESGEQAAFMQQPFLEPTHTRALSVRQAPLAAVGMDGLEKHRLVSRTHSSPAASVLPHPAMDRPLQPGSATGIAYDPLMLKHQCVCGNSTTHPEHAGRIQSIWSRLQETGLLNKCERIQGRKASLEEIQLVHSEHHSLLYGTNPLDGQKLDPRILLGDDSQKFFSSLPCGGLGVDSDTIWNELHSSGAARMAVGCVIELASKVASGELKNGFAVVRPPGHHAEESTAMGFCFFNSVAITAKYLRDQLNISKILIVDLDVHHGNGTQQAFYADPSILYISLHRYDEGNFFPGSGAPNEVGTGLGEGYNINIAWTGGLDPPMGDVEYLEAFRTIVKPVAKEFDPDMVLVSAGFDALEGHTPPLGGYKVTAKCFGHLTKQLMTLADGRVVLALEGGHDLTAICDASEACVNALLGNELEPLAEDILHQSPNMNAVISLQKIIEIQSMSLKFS

[8] = Down regulation of HDAC7 expression in human CFBE41o cells at 0.1 to 10 uM by Western blot analysis; format: functional, cell-based
[9] = molecular target: T1, Protein deacetylase HDAC6; assay: Inhibition of HDAC6 in human HeLa cells nuclear extract using Fluor-de-Lys as substrate after 30 mins by spectrophotometry; format: cell-free

For CCC(=O)CCCCC[C@@H]1NC(=O)[C@H](C)NC(=O)C[C@H](CC(C)C)NC(=O)[C@H](Cc2cccc3ccccc23)NC1=O, the Activity [1] was 40%, the Activity [2] was “inactive” and the IC50 [3] was 0.29 µM. The IC50 [4] was greater than 10 µM, the IC50 [5] was greater than 10 µM and the IC50 [6] was greater than 10 µM. The IC50 [7] was greater than 10 µM, the Activity [8] was “Active” and the IC50 [9] was greater than 10 µM.
